Test results: publication PMC6745845, “In Vitro and in Vivo antitumor activity and the mechanism of siphonodictyal B in human colon cancer cells” (Cancer Medicine, 2019)
pIC50: −log10 of the molar value. Where two headings read alike, the source gives them in different places.

Tests used:
CDK4/Cyclin D3 = molecular target: T1, CDK4/Cyclin D3 (Homo sapiens, UniProt P11802); test: off-chip mobility shift assay, CDK4/Cyclin D3; assay type: biochemical
T1 construct: purchased Carna Biosciences
Experimental: (§1) Cellular kinase activities were evaluated using nonradioisotopic methods such as the off‐chip mobility shift assay or IMAP (Carna Biosciences, Kobe, Japan).11 A kinase inhibition profiling panel was produced on the basis of the kinase inhibition rates. In off‐chip mobility shift assay, compound solution was prepared in assay buffer (20 mmol/L HEPES, 0.01% Triton X‐100, 2 mmol/L DTT, pH 7.5) and incubated in a 384‐well plate at room temperature. The reaction was stopped by adding Termination Buffer (QuickScout Screening Assist MSA; Carna Biosciences, Kobe, Japan). The substrate peptide and the phosphorylated peptide in the reaction solution were separated and quantified by LabChip system (Perkin Elmer, MA, USA). In IMAP assay, compound solution was prepared in assay buffer (20 mmol/L HEPES, 0.01% Tween‐20, 2 mmol/L DTT, pH 7.4) and incubated in a 384‐well black plate at room temperature. IMAP binding reagent (IMAP Screening Express kit; Molecular Devices, CA, USA) was added and incubated for 30 minutes. The kinase reaction was evaluated at the fluorescence polarization.

CDK6/Cyclin D3 = molecular target: T2, CDK6/Cyclin D3 (Homo sapiens, UniProt Q00534); test: off-chip mobility shift assay, CDK6/Cyclin D3; assay type: biochemical
T2 construct: purchased Carna Biosciences
T2 sequence (Q00534 whole entry): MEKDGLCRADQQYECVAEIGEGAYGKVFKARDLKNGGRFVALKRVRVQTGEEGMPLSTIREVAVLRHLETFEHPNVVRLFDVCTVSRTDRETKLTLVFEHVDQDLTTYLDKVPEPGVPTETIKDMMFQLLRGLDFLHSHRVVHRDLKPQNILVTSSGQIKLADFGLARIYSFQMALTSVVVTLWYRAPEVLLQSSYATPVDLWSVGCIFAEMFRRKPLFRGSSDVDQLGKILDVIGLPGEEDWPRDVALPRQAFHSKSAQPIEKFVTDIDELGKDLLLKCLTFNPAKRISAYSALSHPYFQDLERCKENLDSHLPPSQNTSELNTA
T2 sequence (P30281 whole entry partner): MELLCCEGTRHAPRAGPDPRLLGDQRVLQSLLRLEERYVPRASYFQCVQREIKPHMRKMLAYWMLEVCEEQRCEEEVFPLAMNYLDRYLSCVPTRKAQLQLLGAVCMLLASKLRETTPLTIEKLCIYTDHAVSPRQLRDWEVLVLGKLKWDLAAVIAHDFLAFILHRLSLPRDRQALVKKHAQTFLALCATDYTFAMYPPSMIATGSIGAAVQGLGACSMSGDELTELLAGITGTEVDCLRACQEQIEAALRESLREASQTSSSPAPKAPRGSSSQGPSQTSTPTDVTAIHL
Experimental: as §1

CDK7/Cyclin H/MAT1 = molecular target: T3, CDK7/Cyclin H/MAT1 (Homo sapiens, UniProt P50613); test: off-chip mobility shift assay, CDK7/Cyclin H/MAT1; assay type: biochemical
T3 construct: purchased Carna Biosciences
T3 sequence (P50613 whole entry): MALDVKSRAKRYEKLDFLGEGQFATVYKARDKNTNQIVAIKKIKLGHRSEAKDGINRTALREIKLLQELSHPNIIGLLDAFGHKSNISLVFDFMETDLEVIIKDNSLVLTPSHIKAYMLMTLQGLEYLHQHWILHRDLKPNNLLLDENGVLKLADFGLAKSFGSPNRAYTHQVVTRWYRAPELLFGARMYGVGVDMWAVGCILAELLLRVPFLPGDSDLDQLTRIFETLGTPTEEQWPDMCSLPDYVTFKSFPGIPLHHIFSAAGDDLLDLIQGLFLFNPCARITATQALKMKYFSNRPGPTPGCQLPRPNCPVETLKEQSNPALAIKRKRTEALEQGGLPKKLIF
T3 sequence (P51946 whole entry partner): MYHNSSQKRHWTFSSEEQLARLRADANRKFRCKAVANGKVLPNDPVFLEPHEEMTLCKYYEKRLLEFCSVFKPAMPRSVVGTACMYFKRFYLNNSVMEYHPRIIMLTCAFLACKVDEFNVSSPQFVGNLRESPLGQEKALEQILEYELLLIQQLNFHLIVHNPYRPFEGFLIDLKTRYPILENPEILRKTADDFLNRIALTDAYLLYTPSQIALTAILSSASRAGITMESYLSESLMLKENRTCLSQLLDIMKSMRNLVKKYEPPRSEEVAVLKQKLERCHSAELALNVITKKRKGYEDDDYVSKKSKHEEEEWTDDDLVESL
T3 sequence (P51948 whole entry partner): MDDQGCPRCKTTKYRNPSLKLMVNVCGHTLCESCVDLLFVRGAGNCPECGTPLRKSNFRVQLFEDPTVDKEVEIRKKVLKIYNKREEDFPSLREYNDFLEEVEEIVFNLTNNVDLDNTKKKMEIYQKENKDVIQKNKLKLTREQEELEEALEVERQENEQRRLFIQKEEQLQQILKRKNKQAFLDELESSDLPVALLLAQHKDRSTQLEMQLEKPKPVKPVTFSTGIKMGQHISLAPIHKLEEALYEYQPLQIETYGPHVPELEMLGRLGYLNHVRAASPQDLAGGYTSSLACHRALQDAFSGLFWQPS
Experimental: as §1

PIM2 = molecular target: T4, PIM2 (Homo sapiens, UniProt Q9P1W9); test: off-chip mobility shift assay, PIM2; assay type: biochemical
T4 construct: purchased Carna Biosciences
T4 sequence (Q9P1W9 whole entry): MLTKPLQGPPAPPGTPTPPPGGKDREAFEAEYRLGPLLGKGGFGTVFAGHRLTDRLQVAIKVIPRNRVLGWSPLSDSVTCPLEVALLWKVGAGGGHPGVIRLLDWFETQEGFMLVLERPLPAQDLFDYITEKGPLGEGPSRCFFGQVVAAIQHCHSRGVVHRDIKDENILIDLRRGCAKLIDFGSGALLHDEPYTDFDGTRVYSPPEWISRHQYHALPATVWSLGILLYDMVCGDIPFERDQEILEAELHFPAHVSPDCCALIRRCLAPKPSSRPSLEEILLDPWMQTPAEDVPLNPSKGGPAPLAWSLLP
Experimental: as §1

313 protein kinases = test: kinase panel assay (off-chip mobility shift or IMAP); assay type: biochemical; settings: 313 kinases; 10 μmol/L printed for siphonodictyal B
Experimental: as §1

PIK3CA/PIK3R1 = settings: cited from earlier work
HCT 116 cells [1] = test: Western blot analysis; assay type: cell-based, human
Experimental: HCT 116 cells were seeded in six‐well plates at 2 × 10^5 cells/well and incubated for 24 houra. […] Cells were harvested and lysed using RIPA buffer. The proteins were separated on an SDS‐PAGE and transferred to PVDF membranes. Then, the membranes were blocked for 1 hour and incubated with primary antibodies overnight at 4°C. The membranes were washed and incubated with secondary antibodies for 1 hour at room temperature. Next, the resultant bands were detected using an Odyssey Infrared Imaging system (LI‐COR, NB, USA). Antibodies against phospho‐RB (Ser780), AKT, phospho‐AKT ([…]), PARP, phospho‐p38 MAPK (Thr180/Tyr182), p38 MAPK, and Bim were purchased from Cell Signaling Technology (Danvers, MA, USA). Antibodies against β‐actin and α‐tubulin were purchased from Sigma‐Aldrich.

HCT 116 cells [2] = test: ROS detection by DCFDA staining; assay type: cell-based, human; settings: 2 h
Experimental: HCT 116 cells were treated with each drug for 2 hours and stained using a DCFDA/H2DCFDA—Cellular Reactive Oxygen Species Detection Assay Kit (Abcam). The measurement was performed using FC‐500.

HCT 116 xenograft = test: xenograft mouse model, tumor growth; assay type: in vivo, Balb/c nude mice; settings: 20 mg/kg intraperitoneally every 3 days
Experimental: (§2) All animal experiments were performed according to the Regulations for Animal Experiments and Related Activities at Tohoku University. Six‐week‐old female Balb/c nude mice were purchased from Charles River Laboratories (Wilmington, MA, USA). HCT 116 cells (5 × 10^6) were implanted subcutaneously into the right flanks of nude mice. After tumor formation was confirmed, mice were assigned to treatment with 20 mg/kg siphonodictyal B or vehicle (four mice per group) administered intraperitoneally every 3 days. Siphonodictyal B was dissolved in saline with 2.5% CremophorEL® and 2.5% ethanol. Tumor volumes were calculated on the basis of tumor mass using the formula length × width × width/2 (mm^3). The body weights of mice were also measured every 3 days.

phospho-p38 = test: immunohistochemistry of xenograft tumor tissue; assay type: in vivo, Balb/c nude mice; settings: 20 mg/kg intraperitoneally every 3 days, after all treatments
Experimental: as §2
Tumor tissues were collected from mice, fixed in 10% formalin, and embedded in paraffin. Tumor sections on slides were dewaxed, rehydrated, and incubated with a specific antibody against phospho‐p38.

HCT 116 cells [3] = test: cell proliferation assay (Cell Counting Kit-8), HCT 116
Experimental: Cells were seeded in 96‐well plates at 4000 cells/well and incubated for 24 hours, then treated with each concentration of siphonodictyal B. In experiments with SB203580 or NAC, cells were further preincubated for 24 or 1 hour before application of siphonodictyal B, respectively. Cells were incubated with Cell Counting Kit‐8 (Dojindo Molecular Technologies, Kumamoto, Japan) for 1.5 hours. Then, the absorbance of each well was measured using SpectraMaxM2e (Molecular Devices, CA, USA). The ratios of surviving cells to control cells treated with 0.1% DMSO were calculated.

[4] = read-out: PI3K (p110α/p85α) inhibitory activity IC50
[5] = ref Kikuchi T et al. 2016;2016(34):5659-66, read-out: IC50 PIK3CA/PIK3R1

T1 sequence (P11802 whole entry): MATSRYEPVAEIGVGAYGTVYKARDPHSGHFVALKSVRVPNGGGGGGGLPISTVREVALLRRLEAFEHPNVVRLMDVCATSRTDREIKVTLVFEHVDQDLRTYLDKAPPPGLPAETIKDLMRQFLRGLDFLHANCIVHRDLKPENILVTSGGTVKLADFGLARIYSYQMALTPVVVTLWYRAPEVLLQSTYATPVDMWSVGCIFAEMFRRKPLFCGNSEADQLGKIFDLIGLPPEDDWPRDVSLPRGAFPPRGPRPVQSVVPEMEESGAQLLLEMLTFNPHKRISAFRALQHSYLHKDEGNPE
T1 sequence (P30281 whole entry partner): as the sequence (P30281 whole entry partner) above

CC1CCC2C(C)(C)CCCC2(C)c2c1oc1c(C=O)c(O)c(O)cc21 (stereo not shown) [Liphagal]
pIC50 (CDK4/Cyclin D3): 4.70 | pIC50 (CDK6/Cyclin D3): 5.17 | pIC50 (CDK7/Cyclin H/MAT1): 5.90 | pIC50 (PIM2): 5.27 | inhibition of CDK4, CDK6, CDK7 and PIM-2 in kinase panel (313 protein kinases): strongly inhibited | pIC50 (PIK3CA/PIK3R1; [4]): 5.39 | pIC50 (PIK3CA/PIK3R1; [5]): 5.39

CS(=O)(=O)N1CCN(Cc2cc3nc(-c4cccc5[nH]ncc45)nc(N4CCOCC4)c3s2)CC1 [GDC0941, reference compound]
AKT phosphorylation (HCT 116 cells [1]; 2 μmol/L GDC0941, 48 h): inhibited

CC1CC[C@H]2C(C)(C)CCC[C@]2(C)C1=Cc1cc(O)c(O)c(C=O)c1O (stereo partly shown) [Siphonodictyal B]
pIC50 (CDK4/Cyclin D3): 4.48 | pIC50 (CDK6/Cyclin D3): 4.16 | pIC50 (CDK7/Cyclin H/MAT1): 4.86 | pIC50 (PIM2): 5.16 | inhibition of CDK4, CDK6, CDK7 and PIM-2 in kinase panel (313 protein kinases): strongly inhibited | PARP cleavage (HCT 116 cells [1]; 1.0 μmol/L, 48 h): induced | p38 phosphorylation (HCT 116 cells [1]; 1.0 μmol/L, 48 h): clearly induced | AKT phosphorylation at Ser473 (HCT 116 cells [1]; 0.1, 0.5 or 1 μmol/L, 48 h): did not inhibit | RB phosphorylation at Ser780 (HCT 116 cells [1]; 0.1, 0.5 or 1 μmol/L, 48 h): did not inhibit | levels of Bim (HCT 116 cells [1]; 0.5 or 1.0 μmol/L, 48 h): increased | phosphorylated p38 on addition of NAC (HCT 116 cells [1]; with NAC, 24 h): reduced | p38 phosphorylation on addition of SB203580 (HCT 116 cells [1]; with SB203580, 48 h): reduced | ROS levels vs DMSO (HCT 116 cells [2]): higher | increased ROS production on addition of NAC (HCT 116 cells [2]; with NAC): completely canceled | tumor volume vs control group (HCT 116 xenograft): significantly smaller | tumor weight vs control group (HCT 116 xenograft): significantly smaller | phosphorylated p38 staining in tumor tissue vs control group (phospho-p38): strongly stained | pIC50 (PIK3CA/PIK3R1; [4]): 5.59 | pIC50 (PIK3CA/PIK3R1; [5]): 5.58 | cytotoxic effect (ratio of surviving cells) (HCT 116 cells [3]; HCT 116, 0.01-10 μmol/L, 24 h): more potent cytotoxic effects than liphagal | cytotoxic effect on addition of NAC (HCT 116 cells [3]; HCT 116, with NAC, 24 h): almost completely rescued | cytotoxic effect on addition of SB203580 (HCT 116 cells [3]; HCT 116, with SB203580, 48 h): partially canceled

CC(=O)c1c(C)c2cnc(Nc3ccc(N4CCNCC4)cn3)nc2n(C2CCCC2)c1=O [palbociclib, Palbociclib, reference compound]
RB phosphorylation (HCT 116 cells [1]; 10 μmol/L palbociclib, 48 h): inhibited
